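Protocol summary: plate cells (96-well), add compound at 5 concentrations, incubate 48 h, interpolate endpoints linearly. Here, GI50 denotes the concentration required for 50% inhibition of growth.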 Activity calls are given as the source filed them. No stated cut-off is given here; in the data, active = GI50 up to about 1.1 µM and inactive = higher.
What was measured:
Test in all cases: DTP human tumour cell line panel, 48 h
[1] = tested on: ACHN
[2] = tested on: CAKI-1
[3] = tested on: HCT-116
[4] = tested on: HL-60
[5] = tested on: IGROV-1
[6] = tested on: K562
[7] = tested on: MDA-MB-231
[8] = tested on: MDA-N
[9] = tested on: Malme-3M
[10] = tested on: NCI-H226
[11] = tested on: OVCAR-3
[12] = tested on: SF-268
[13] = tested on: SF-539
[14] = tested on: SK-MEL-5
[15] = tested on: SNB-19
[16] = tested on: HOP-92
[17] = tested on: NCI-H460
[18] = tested on: NCI-H522
[19] = tested on: SK-MEL-2

For `COc1cc2c(cc1OC)C1c3ccccc3CCN1CCC2.[O-][Cl+3]([O-])([O-])O` (stereo not given), which GI50 [1] is on record?
The GI50 was > 100 µM (inactive).

And the GI50 [2]?
Its GI50 is > 100 µM (inactive).

And the GI50 [3]?
Its GI50 is 74.3 µM (inactive).

And the GI50 [4]?
Its GI50 is 68.5 µM (inactive).

And the GI50 [5]?
The GI50 was > 100 µM (inactive).

What about the GI50 [6] of the same compound?
Its GI50 is 76 µM (inactive).

What about the GI50 [7] of the same compound?
Its GI50 is > 100 µM (inactive).

What about the GI50 [8] of the same compound?
Its GI50 is > 100 µM (inactive).

What about the GI50 [9] of the same compound?
Its GI50 is > 100 µM (inactive).

And the GI50 [10]?
Its GI50 is > 100 µM (inactive).

And the GI50 [11]?
The GI50 was > 100 µM (inactive).

What about the GI50 [12] of the same compound?
Its GI50 is > 100 µM (inactive).

What about the GI50 [13] of the same compound?
Its GI50 is > 100 µM (inactive).

What about the GI50 [14] of the same compound?
Its GI50 is > 100 µM (inactive).

And the GI50 [15]?
The GI50 was > 100 µM (inactive).

Which GI50 [1] does the source give for `Cc1cccc(C)c1NC(=O)C(=O)CC(=O)c1cccc([N+](=O)[O-])c1` here?
Its GI50 is > 100 µM (inactive).

What about the GI50 [2] of the same compound?
Its GI50 is > 100 µM (inactive).

And the GI50 [3]?
The GI50 was > 100 µM (inactive).

What about the GI50 [4] of the same compound?
The GI50 was > 100 µM (inactive).

And the GI50 [16]?
Its GI50 is > 100 µM (inactive).

And the GI50 [5]?
Its GI50 is > 100 µM (inactive).

What about the GI50 [6] of the same compound?
The GI50 was > 100 µM (inactive).

And the GI50 [9]?
The GI50 was > 100 µM (inactive).

And the GI50 [10]?
The GI50 was > 100 µM (inactive).

And the GI50 [17]?
The GI50 was > 100 µM (inactive).

And the GI50 [18]?
The GI50 was > 100 µM (inactive).

What about the GI50 [11] of the same compound?
The GI50 was > 100 µM (inactive).

What about the GI50 [12] of the same compound?
The GI50 was > 100 µM (inactive).

What about the GI50 [13] of the same compound?
Its GI50 is > 100 µM (inactive).

And the GI50 [19]?
The GI50 was > 100 µM (inactive).

And the GI50 [14]?
The GI50 was > 100 µM (inactive).

What about the GI50 [15] of the same compound?
The GI50 was > 100 µM (inactive).

With `COC1=C(Br)C(=O)c2nc(C)ccc2C1=O` as the compound, how does the GI50 [1] read?
The GI50 was 10.7 µM (inactive).

And the GI50 [2]?
The GI50 was 15.6 µM (inactive).

What about the GI50 [3] of the same compound?
The GI50 was 8.18 µM (inactive).

And the GI50 [4]?
The GI50 was 0.993 µM (active).

What about the GI50 [16] of the same compound?
The GI50 was 7.18 µM (inactive).

And the GI50 [5]?
Its GI50 is 19.6 µM (inactive).

And the GI50 [6]?
The GI50 was 8.67 µM (inactive).

And the GI50 [9]?
Its GI50 is 16.8 µM (inactive).

And the GI50 [10]?
The GI50 was 22.8 µM (inactive).

And the GI50 [17]?
Its GI50 is 15.8 µM (inactive).

What about the GI50 [18] of the same compound?
The GI50 was 6.97 µM (inactive).

What about the GI50 [11] of the same compound?
Its GI50 is 7.46 µM (inactive).

And the GI50 [12]?
The GI50 was 17.5 µM (inactive).

What about the GI50 [13] of the same compound?
Its GI50 is 21.5 µM (inactive).

And the GI50 [19]?
Its GI50 is 16.2 µM (inactive).

What about the GI50 [14] of the same compound?
Its GI50 is 18.1 µM (inactive).

And the GI50 [15]?
The GI50 was > 40.9 µM (inactive).

With `Cc1ccc(C)c(N2C(=O)C(=O)C(c3nc4ccccc4s3)C(=O)C2=O)c1` as the compound, how does the GI50 [1] read?
Its GI50 is > 100 µM (inactive).

And the GI50 [2]?
Its GI50 is > 100 µM (inactive).

What about the GI50 [3] of the same compound?
The GI50 was > 100 µM (inactive).

What about the GI50 [4] of the same compound?
Its GI50 is > 100 µM (inactive).

What about the GI50 [16] of the same compound?
Its GI50 is > 100 µM (inactive).

And the GI50 [5]?
Its GI50 is > 100 µM (inactive).

And the GI50 [6]?
The GI50 was > 100 µM (inactive).

And the GI50 [9]?
The GI50 was > 100 µM (inactive).

And the GI50 [10]?
The GI50 was > 100 µM (inactive).

And the GI50 [17]?
Its GI50 is > 100 µM (inactive).

And the GI50 [18]?
The GI50 was > 100 µM (inactive).

What about the GI50 [11] of the same compound?
The GI50 was > 100 µM (inactive).

And the GI50 [12]?
The GI50 was > 100 µM (inactive).

What about the GI50 [13] of the same compound?
The GI50 was > 100 µM (inactive).

What about the GI50 [19] of the same compound?
The GI50 was > 100 µM (inactive).

And the GI50 [14]?
The GI50 was > 100 µM (inactive).

And the GI50 [15]?
The GI50 was > 100 µM (inactive).

Which results are given for `CCOc1cc2c[n+](C)c3c4cc(OC)c(OC)cc4ccc3c2cc1OC`?
GI50 [1]: > 100 µM (inactive); GI50 [2]: > 100 µM (inactive); GI50 [3]: > 100 µM (inactive); GI50 [4]: 97.5 µM (inactive); GI50 [16]: > 100 µM (inactive); GI50 [5]: > 100 µM (inactive); GI50 [6]: > 100 µM (inactive); GI50 [9]: > 100 µM (inactive); GI50 [10]: > 100 µM (inactive); GI50 [17]: > 100 µM (inactive); GI50 [18]: > 100 µM (inactive); GI50 [11]: > 100 µM (inactive); GI50 [12]: > 100 µM (inactive); GI50 [13]: > 100 µM (inactive); GI50 [19]: > 100 µM (inactive); GI50 [14]: > 100 µM (inactive); GI50 [15]: > 100 µM (inactive)

Which GI50 [1] does the source give for `Brc1ccc(/C=N/C23CC4CC(CC(C4)C2)C3)cc1` here?
Its GI50 is > 100 µM (inactive).

What about the GI50 [2] of the same compound?
Its GI50 is > 100 µM (inactive).

What about the GI50 [3] of the same compound?
Its GI50 is > 100 µM (inactive).

And the GI50 [4]?
The GI50 was > 100 µM (inactive).

And the GI50 [16]?
Its GI50 is > 100 µM (inactive).

And the GI50 [5]?
Its GI50 is > 100 µM (inactive).

And the GI50 [6]?
Its GI50 is > 100 µM (inactive).

What about the GI50 [9] of the same compound?
The GI50 was > 100 µM (inactive).

And the GI50 [10]?
Its GI50 is > 100 µM (inactive).

And the GI50 [17]?
The GI50 was > 100 µM (inactive).

What about the GI50 [18] of the same compound?
Its GI50 is > 100 µM (inactive).

What about the GI50 [11] of the same compound?
The GI50 was > 100 µM (inactive).

And the GI50 [12]?
Its GI50 is > 100 µM (inactive).

What about the GI50 [13] of the same compound?
The GI50 was > 100 µM (inactive).

What about the GI50 [19] of the same compound?
The GI50 was > 100 µM (inactive).

What about the GI50 [14] of the same compound?
The GI50 was > 100 µM (inactive).

What about the GI50 [15] of the same compound?
Its GI50 is > 100 µM (inactive).
